Series [1] concerns the target Tyrosine-protein kinase JAK2 (Homo sapiens, UniProt O60674). Briefly: Inhibition of human JAK2 kinase domain using biotin-Lyn-substrate-2 as substrate incubated for 1 hr by ELISA method.
The target of series [2] is T1, Tyrosine-protein kinase JAK3 (Homo sapiens, UniProt P52333).
T1 sequence (P52333 whole entry): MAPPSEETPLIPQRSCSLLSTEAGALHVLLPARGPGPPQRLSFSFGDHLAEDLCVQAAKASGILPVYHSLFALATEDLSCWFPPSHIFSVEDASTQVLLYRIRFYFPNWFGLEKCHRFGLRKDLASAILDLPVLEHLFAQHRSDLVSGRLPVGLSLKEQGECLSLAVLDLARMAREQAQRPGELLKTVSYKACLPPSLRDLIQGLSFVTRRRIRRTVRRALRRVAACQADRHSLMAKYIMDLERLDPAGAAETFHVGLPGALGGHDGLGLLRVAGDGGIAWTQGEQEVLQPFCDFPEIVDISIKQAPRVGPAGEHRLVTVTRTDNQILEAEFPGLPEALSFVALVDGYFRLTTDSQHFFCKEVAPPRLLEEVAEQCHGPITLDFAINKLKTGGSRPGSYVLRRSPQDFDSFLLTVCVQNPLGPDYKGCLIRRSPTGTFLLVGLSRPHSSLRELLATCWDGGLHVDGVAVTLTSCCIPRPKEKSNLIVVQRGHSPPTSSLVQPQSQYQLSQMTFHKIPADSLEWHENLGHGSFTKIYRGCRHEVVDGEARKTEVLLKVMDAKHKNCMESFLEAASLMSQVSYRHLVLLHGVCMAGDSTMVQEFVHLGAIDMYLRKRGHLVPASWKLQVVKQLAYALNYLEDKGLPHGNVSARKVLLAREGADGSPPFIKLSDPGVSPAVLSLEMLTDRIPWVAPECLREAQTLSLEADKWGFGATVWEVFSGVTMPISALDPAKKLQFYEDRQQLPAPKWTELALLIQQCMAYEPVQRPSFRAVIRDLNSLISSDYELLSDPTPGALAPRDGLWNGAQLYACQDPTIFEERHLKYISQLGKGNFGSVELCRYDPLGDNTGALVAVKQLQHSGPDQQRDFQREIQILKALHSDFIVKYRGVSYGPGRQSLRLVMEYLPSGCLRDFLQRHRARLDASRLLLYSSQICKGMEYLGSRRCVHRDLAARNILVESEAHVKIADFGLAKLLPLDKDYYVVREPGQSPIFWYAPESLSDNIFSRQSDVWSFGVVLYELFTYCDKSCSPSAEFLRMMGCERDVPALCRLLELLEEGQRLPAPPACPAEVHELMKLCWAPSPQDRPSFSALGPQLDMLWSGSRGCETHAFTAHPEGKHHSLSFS
The series can be described thus: Inhibition of human JAK3 kinase domain using biotin-Lyn-substrate-2 as substrate incubated for 1 hr by ELISA method. In general terms: In an ELISA, binding on a coated surface is turned into a signal by an enzyme label.

The nature of series [3]: Effective permeability of the compound at pH 7.4 by PAMPA method. The series is classed as physicochemical. Particulars: read-out: Peff. A general note: The PAMPA barrier holds no transporters, so it reflects passive diffusion.
The nature of series [4]: Inhibition of JAK1/JAK3 in Lewis rat splenocytes assessed as reduction in IL2-stimulated T-cell proliferation incubated for 3 days by alamar blue dye based fluorescence assay. The conditions noted are these: 72 h. A general note: Resazurin is reduced to fluorescent resorufin, in cell work by metabolically active cells.
Series [5] addresses Voltage-gated inwardly rectifying potassium channel KCNH2 (Homo sapiens, UniProt Q12809).
Description: Inhibition of human ERG expressed in CHOK1 cells incubated for 10 mins by Rb efflux assay
In series [6] the target is Tyrosine-protein kinase JAK1 (Homo sapiens, UniProt P23458). Briefly: Inhibition of human JAK1 kinase domain using biotin-Lyn-substrate-2 as substrate incubated for 1 hr by ELISA method.
Sequence of Tyrosine-protein kinase JAK1 (P23458 whole entry, the tested form may be a part): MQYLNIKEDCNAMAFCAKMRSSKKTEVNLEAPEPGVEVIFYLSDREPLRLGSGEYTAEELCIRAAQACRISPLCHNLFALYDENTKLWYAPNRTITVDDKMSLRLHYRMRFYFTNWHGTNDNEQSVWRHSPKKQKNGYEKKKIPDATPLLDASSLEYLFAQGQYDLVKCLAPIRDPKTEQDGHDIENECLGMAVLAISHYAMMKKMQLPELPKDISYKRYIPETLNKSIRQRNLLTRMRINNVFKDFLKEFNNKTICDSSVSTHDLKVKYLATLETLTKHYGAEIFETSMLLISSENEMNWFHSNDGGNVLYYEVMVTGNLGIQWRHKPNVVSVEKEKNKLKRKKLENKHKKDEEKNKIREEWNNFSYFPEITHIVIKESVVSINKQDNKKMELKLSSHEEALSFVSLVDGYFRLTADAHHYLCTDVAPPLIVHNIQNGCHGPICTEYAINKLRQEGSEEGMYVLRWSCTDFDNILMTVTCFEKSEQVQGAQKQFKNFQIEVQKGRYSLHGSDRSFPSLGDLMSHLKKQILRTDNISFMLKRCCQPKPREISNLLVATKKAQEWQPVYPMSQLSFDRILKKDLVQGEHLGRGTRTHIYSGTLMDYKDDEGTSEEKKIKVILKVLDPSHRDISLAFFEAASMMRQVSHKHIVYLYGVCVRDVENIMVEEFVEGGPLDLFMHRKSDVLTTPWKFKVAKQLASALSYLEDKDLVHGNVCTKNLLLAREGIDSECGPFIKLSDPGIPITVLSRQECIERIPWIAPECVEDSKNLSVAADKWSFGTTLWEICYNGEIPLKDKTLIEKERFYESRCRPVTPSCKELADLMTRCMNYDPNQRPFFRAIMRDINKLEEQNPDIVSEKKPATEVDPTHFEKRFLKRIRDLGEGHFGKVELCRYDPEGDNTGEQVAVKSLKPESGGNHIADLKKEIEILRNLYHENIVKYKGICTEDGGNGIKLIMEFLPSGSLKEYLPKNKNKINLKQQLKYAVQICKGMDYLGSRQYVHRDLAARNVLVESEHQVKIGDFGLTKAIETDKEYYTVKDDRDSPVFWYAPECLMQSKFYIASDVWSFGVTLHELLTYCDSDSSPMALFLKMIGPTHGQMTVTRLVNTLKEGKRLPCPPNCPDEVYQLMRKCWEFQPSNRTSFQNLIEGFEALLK
Series [7] is described as follows: Intrinsic clearance in rat liver microsomes at 0.2 uM in presence of NADPH generating system by LC/MS/MS method. The series is classed as ADME. Particulars: read-out: CLH.

Sequence of Tyrosine-protein kinase JAK2 (O60674 whole entry, the tested form may be a part): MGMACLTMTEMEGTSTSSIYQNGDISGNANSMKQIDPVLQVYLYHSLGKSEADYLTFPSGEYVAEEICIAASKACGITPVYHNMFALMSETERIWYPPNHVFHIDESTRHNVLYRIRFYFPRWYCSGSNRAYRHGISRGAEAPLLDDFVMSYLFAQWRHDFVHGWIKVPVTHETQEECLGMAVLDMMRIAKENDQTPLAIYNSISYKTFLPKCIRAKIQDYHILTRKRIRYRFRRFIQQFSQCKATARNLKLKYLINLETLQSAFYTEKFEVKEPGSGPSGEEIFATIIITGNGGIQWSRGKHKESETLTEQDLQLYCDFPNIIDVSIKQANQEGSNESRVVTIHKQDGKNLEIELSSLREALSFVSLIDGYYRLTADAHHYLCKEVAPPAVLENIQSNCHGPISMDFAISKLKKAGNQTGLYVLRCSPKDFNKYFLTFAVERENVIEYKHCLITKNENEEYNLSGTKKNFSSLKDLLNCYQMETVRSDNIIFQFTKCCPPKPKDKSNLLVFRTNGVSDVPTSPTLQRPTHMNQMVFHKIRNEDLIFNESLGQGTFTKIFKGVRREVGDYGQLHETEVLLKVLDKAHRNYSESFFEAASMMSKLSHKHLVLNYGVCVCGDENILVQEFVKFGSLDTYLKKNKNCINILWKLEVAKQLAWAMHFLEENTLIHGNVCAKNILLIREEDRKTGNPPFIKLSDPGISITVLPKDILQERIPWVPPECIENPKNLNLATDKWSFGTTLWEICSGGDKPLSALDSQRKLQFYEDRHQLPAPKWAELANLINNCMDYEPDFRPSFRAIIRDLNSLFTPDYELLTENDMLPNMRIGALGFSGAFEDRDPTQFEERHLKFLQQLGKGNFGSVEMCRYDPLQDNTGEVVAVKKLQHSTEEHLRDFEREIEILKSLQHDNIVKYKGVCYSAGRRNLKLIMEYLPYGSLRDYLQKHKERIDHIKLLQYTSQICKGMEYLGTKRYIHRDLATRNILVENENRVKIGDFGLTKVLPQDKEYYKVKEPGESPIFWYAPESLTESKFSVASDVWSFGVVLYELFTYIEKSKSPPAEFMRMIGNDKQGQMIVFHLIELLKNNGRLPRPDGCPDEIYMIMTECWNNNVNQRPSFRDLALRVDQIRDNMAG
Sequence of Voltage-gated inwardly rectifying potassium channel KCNH2 (Q12809 whole entry, the tested form may be a part): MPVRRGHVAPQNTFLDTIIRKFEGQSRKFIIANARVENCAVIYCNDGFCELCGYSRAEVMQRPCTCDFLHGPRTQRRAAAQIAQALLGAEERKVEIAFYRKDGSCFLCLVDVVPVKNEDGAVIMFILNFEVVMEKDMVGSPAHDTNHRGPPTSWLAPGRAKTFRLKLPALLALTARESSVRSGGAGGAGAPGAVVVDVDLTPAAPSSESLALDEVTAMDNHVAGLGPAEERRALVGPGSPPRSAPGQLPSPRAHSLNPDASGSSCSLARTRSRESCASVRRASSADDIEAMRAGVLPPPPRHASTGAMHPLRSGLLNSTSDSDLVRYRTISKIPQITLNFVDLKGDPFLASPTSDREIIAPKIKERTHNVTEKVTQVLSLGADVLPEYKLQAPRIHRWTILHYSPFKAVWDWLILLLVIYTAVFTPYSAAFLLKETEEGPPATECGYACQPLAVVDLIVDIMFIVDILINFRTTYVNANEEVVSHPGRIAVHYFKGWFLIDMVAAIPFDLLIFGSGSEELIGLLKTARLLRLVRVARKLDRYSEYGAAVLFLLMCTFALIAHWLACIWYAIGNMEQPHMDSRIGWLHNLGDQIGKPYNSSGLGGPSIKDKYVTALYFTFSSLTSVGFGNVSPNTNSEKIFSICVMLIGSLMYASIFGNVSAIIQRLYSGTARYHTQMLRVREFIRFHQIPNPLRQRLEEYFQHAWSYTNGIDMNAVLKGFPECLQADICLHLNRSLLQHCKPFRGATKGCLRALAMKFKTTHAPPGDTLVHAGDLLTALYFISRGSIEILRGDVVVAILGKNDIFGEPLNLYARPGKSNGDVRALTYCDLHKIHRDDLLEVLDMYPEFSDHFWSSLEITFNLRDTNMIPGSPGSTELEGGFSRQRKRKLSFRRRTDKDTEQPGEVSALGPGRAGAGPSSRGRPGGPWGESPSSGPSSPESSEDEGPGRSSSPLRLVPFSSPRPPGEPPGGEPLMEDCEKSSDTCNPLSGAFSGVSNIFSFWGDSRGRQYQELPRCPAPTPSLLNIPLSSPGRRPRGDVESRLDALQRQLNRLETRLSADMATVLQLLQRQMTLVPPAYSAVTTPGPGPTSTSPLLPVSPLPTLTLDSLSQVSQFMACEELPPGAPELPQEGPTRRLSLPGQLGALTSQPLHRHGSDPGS

Usually IC50 stands for the concentration needed to halve the response being measured. For `N#Cc1cccc(CN2CCC(Nc3c(C(N)=O)cnc4[nH]ccc34)CC2)c1`, the results for the IC50 in series [1] and in series [2] were 46 nM and 25 nM, respectively.

In the case of `N#Cc1ccc(N2CCC(Nc3c(C(N)=O)cnc4[nH]ccc34)CC2)nn1`, the Papp in series [3] is less than 0.2 ×10⁻⁶ cm/s. In addition, the IC50 in series [4] is 140 nM; in series [1], 12 nM; in series [5], more than 100000 nM; in series [2], 1.2 nM; in series [6], 22 nM.

Turning to `NC(=O)c1cnc2[nH]ccc2c1NC1CCN(c2ccc(CO)cn2)CC1`, the IC50 was 100 nM in series [1], 9.2 nM in series [2] and 180 nM in series [6].

For the molecule `CN1CCC(Nc2c(C(N)=O)cnc3[nH]ccc23)CC1`, the values for the IC50 in series [1], in series [2] and in series [6] were 310 nM, 90 nM and 300 nM, respectively.

As for `N#Cc1ccc(N2CCC(Nc3c(C(N)=O)cnc4[nH]ccc34)CC2)cc1`, the CLint scaled at 0.2 µM in series [7] worked out at 262 mL/min/kg. Moreover, the IC50 in series [1] came to 49 nM; in series [6], 50 nM.

Regarding `N#Cc1ccc(N2CCC(Nc3c(C(N)=O)cnc4[nH]ccc34)CC2)nc1`, the Papp in series [3] was 26 ×10⁻⁶ cm/s. Further, the CLint scaled at 0.2 µM in series [7] was found to be 204 mL/min/kg. Besides, the IC50 in series [4] turned out to be 27 nM; in series [1], 18 nM; in series [2] it was 1.3 nM; in series [6], 16 nM.

In the case of `NC(=O)c1cnc2[nH]ccc2c1NC1CCN(Cc2ccccc2)CC1`, in series [1], the half-maximal inhibitory concentration (IC50) came out at 84 nM.

In the case of `NC(=O)c1cnc2[nH]ccc2c1N[C@H]1CCCN(Cc2ccccc2)C1`, the IC50 in series [1] was found to be 640 nM; in series [2] it was 130 nM.

For `N#CCC(=O)N1CCC(Nc2c(C(N)=O)cnc3[nH]ccc23)CC1`, the figures for the IC50 in series [1], in series [2] and in series [6] were 200 nM, 46 nM and 110 nM, respectively.

Take `CS(=O)(=O)N1CCC(Nc2c(C(N)=O)cnc3[nH]ccc23)CC1`: the values for the IC50 in series [1] and in series [2] were 190 nM and 150 nM, respectively.

As to `N#Cc1cnc(N2CCC(Nc3c(C(N)=O)cnc4[nH]ccc34)CC2)cn1`, the Papp in series [3] is less than 0.2 ×10⁻⁶ cm/s. Also, the IC50 is 77 nM in series [4]; 41 nM in series [1]; more than 100000 nM in series [5]; 3.6 nM in series [2]; 35 nM in series [6].

Consider `C[C@@H]1CCCC[C@@H]1Nc1c(C(N)=O)cnc2[nH]ccc12`, for which the CLint scaled at 0.2 µM in series [7] was more than 1000 mL/min/kg. Besides, the IC50 amounted to 86 nM in series [4], 30 nM in series [1], 5.1 nM in series [2] and 47 nM in series [6].

As to `CC(=O)N1CCC(Nc2c(C(N)=O)cnc3[nH]ccc23)CC1`, the IC50 in series [1] is 640 nM; in series [2] it was 340 nM.

For the molecule `NC(=O)c1cnc2[nH]ccc2c1NC1CCN(c2ccc(C(F)(F)F)cn2)CC1`, the IC50 in series [1] was determined as 370 nM; in series [2], 25 nM.

Consider `NC(=O)c1cnc2[nH]ccc2c1N[C@@H]1CCCN(Cc2ccccc2)C1`, for which the IC50 is 430 nM in series [1] and 240 nM in series [2].

Take `NC(=O)c1ccc(N2CCC(Nc3c(C(N)=O)cnc4[nH]ccc34)CC2)nc1`: the figures for the IC50 in series [1], in series [2] and in series [6] were 41 nM, 5.2 nM and 58 nM, respectively.

For the molecule `N#Cc1ccc(N2CC[C@H](Nc3c(C(N)=O)cnc4[nH]ccc34)[C@H](F)C2)nc1`, in series [3], the Papp was 5 ×10⁻⁶ cm/s. The IC50 was 44 nM in series [4]; 17 nM in series [1]; more than 100000 nM in series [5]; 1.7 nM in series [2]; 27 nM in series [6].

With `C[C@H]1CN(c2ccc(C#N)cn2)CC[C@H]1Nc1c(C(N)=O)cnc2[nH]ccc12` (relative stereo), the IC50 in series [1] was 14 nM; in series [2], 0.78 nM; in series [6], 11 nM.

Source of the values: ChEMBL document CHEMBL3593212, “Synthesis and evaluation of novel 1H-pyrrolo[2,3-b]pyridine-5-carboxamide derivatives as potent and orally efficacious immunomodulators targeting JAK3” (Bioorg Med Chem, 2015).
